Reference: the Deep4Chem optical property database
Blank lines part the entries; values can stand above or below the molecule they belong to.

Assay: solvent given as SMILES

SMILES: CCN(CC)c1ccc2cc(/C=C/C(=C(C#N)C#N)c3ccc(N(c4ccccc4)c4ccccc4)cc3)c(=O)oc2c1
- absorption maximum (in CC(C)=O): 516 nm
- absorption maximum (in CCOC(C)=O): 507 nm
- absorption maximum (in CN(C)C=O): 528 nm
- absorption maximum (in CS(C)=O): 536 nm
- absorption maximum (in Cc1ccccc1): 493 nm
- absorption maximum (in ClCCl): 518 nm

SMILES: CC(C)(C)c1ccc(C(C)(C)C)c(N2C(=O)c3cccc4c(-c5ccc(-c6ccccc6)s5)ccc(c34)C2=O)c1
- absorption maximum (in CO): 403 nm
- absorption maximum (in CS(C)=O): 405 nm
- absorption maximum (in Cc1ccccc1): 398 nm

SMILES: CC(C)=C(C)C
- absorption maximum (in CCCCCCC): 196 nm

SMILES: COc1ccc(-c2nc3c(c4c2-c2ccccc2CC4)-c2ccccc2CC3)cc1
- absorption maximum (in C1CCOC1): 322 nm
- absorption maximum (in CC#N): 321 nm
- absorption maximum (in CCCCCC): 322 nm
- absorption maximum (in CCOC(C)=O): 310 nm
- absorption maximum (in CO): 318 nm
- absorption maximum (in CS(C)=O): 320 nm
- absorption maximum (in Cc1ccccc1): 320 nm
- absorption maximum (in ClCCl): 322 nm

SMILES: O=P1(c2ccccc2)C(c2ccc(N(c3ccccc3)c3ccccc3)cc2)=Cc2ccccc21 (stereo not given)
- absorption maximum (in C1CCOC1): 408 nm
- absorption maximum (in CC#N): 407 nm
- absorption maximum (in CN(C)C=O): 410 nm
- absorption maximum (in Cc1ccccc1): 413 nm
- absorption maximum (in ClC(Cl)Cl): 418 nm
- absorption maximum (in ClCCl): 415 nm

SMILES: F[B-]1(F)n2c(nc3c4ccccc4c4ccccc4c32)-c2cccc[n+]21
- absorption maximum (in CC#N): 403 nm
- absorption maximum (in CCCCCC): 447 nm
- absorption maximum (in CO): 404 nm
- absorption maximum (in ClC(Cl)Cl): 430 nm
- absorption maximum (in ClCCl): 421 nm

SMILES: Cc1ccc2nc3cc4c(cc3c(-c3ccccc3)c2c1)[Si](C)(C)O[Si]4(C)C
- absorption maximum (in ClCCl): 370 nm

SMILES: CC(C)[Si]1(C(C)C)c2cc(C=C(C#N)C#N)ccc2-c2ccc(N(C)C)cc21
- absorption maximum (in C1CCCCC1): 480 nm
- absorption maximum (in CC#N): 475 nm
- absorption maximum (in CCO): 478 nm
- absorption maximum (in CCOCC): 469 nm
- absorption maximum (in CS(C)=O): 488 nm
- absorption maximum (in ClCCl): 489 nm
- absorption maximum (in c1ccccc1): 480 nm

SMILES: CCOc1cccc(-c2nc3c(c4c2-c2ccccc2CC4)-c2ccccc2CC3)c1O
- absorption maximum (in ClCCl): 335 nm

SMILES: CCCCN1C(=O)c2cccc3c(OC)ccc(c23)C1=O
- absorption maximum (in CC#N): 376 nm
- absorption maximum (in CS(C)=O): 484 nm
- absorption maximum (in Cc1ccccc1): 362 nm

SMILES: CC(C)(C)c1cc(-c2c3cccc4c5cccc6c(-c7cc(C(C)(C)C)cc(C(C)(C)C)c7)c7cccc8c9cccc2c9c(c34)c(c65)c78)cc(C(C)(C)C)c1
- absorption maximum (in Cc1ccccc1): 687 nm

SMILES: Cc1c(COC(=O)Cc2c[nH]c3ccccc23)n2c(OCC(=O)Cc3c[nH]c4ccccc34)c(C)c(=O)n2c1=O
- absorption maximum (in CCO): 382 nm

SMILES: CCOC(=O)C1=CN(Cc2ccccc2)C=C(C(=O)OCC)C1
- absorption maximum (in C1CCOC1): 367 nm
- absorption maximum (in CO): 371 nm

SMILES: c1ccc(-c2ncc3ccccn23)cc1
- absorption maximum (in ClC(Cl)Cl): 317 nm

SMILES: CCN(CC)c1ccc2c(c1)oc(=O)c1cc3c(C)nn(-c4ccccc4)c3nc12
- absorption maximum (in ClCCl): 377 nm

SMILES: O=Cc1ccc(-c2ccc(C3=CCCCC3)s2)s1
- absorption maximum (in C1CCOC1): 385 nm
- absorption maximum (in CC#N): 358 nm
- absorption maximum (in CCCCCC): 381 nm
- absorption maximum (in CCO): 389 nm
- absorption maximum (in OCCOCCO): 389 nm
- absorption maximum (in c1ccncc1): 392 nm

SMILES: Fc1c(F)c(-n2c3ccccc3c3ccccc32)c(F)c(F)c1/C=C/c1ccc(C(=C(c2ccccc2)c2ccccc2)c2ccccc2)cc1
- absorption maximum (in Cc1ccccc1): 367 nm

SMILES: CCC1(CC)c2cc(B(c3c(C)cc(C)cc3C)c3c(C)cc(C)cc3C)ccc2-c2ccc(N(c3ccccc3)c3ccc4c(c3)C(CC)(CC)c3cc(B(c5c(C)cc(C)cc5C)c5c(C)cc(C)cc5C)ccc3-4)cc21
- absorption maximum (in C1CCOC1): 422 nm
- absorption maximum (in CC#N): 417 nm
- absorption maximum (in CC(C)=O): 418 nm
- absorption maximum (in CCCCCC): 422 nm
- absorption maximum (in CN(C)C=O): 422 nm
- absorption maximum (in Cc1ccccc1): 424 nm
- absorption maximum (in ClC(Cl)Cl): 422 nm

SMILES: Nc1ccc2c3c(cccc13)C(=O)c1ccccc1-2
- absorption maximum (in CO): 514.14 nm

SMILES: CCCCCC(CC)C1(C(CC)CCCCC)c2ccccc2-c2ccc(C#Cc3cc(C#Cc4ccc5c(c4)C(C(CC)CCCCC)(C(CC)CCCCC)c4ccccc4-5)c4ccc5c(C#Cc6ccc7c(c6)C(C(CC)CCCCC)(C(CC)CCCCC)c6ccccc6-7)cc(C#Cc6ccc7c(c6)C(C(CC)CCCCC)(C(CC)CCCCC)c6ccccc6-7)c6ccc3c4c65)cc21 (stereo not given)
- absorption maximum (in C1CCCCC1): 486 nm
- absorption maximum (in C1CCOC1): 492 nm
- absorption maximum (in CCOC(C)=O): 488 nm
- absorption maximum (in CN(C)C=O): 496 nm
- absorption maximum (in Cc1ccccc1): 488 nm
- absorption maximum (in ClC(Cl)Cl): 491 nm
- absorption maximum (in ClCCl): 492 nm

SMILES: C[Si]1(C)C2=CC(=[N+]3CCC3)C=C(F)C2=Nc2c(F)cc(N3CCC3)cc21
- absorption maximum (in CCO): 709 nm

SMILES: CCCCCCCCN1c2ccc(C#Cc3ccc(C(F)(F)F)cc3)cc2Sc2cc(C=O)ccc21
- absorption maximum (in C1CCOC1): 384.01 nm
- absorption maximum (in CC#N): 380 nm
- absorption maximum (in CCCCCC): 376.01 nm
- absorption maximum (in CO): 362 nm
- absorption maximum (in CS(C)=O): 389.99 nm
- absorption maximum (in Cc1ccccc1): 381.99 nm
- absorption maximum (in ClC(Cl)Cl): 389.99 nm

SMILES: O=[N+]([O-])c1ccc(O)cc1
- absorption maximum (in CO): 309 nm
- absorption maximum (in O): 401 nm

SMILES: Cc1ccc2c3ccc(C)cc3c3cc4c(C)cc(=O)oc4cc3c2c1
- absorption maximum (in ClC(Cl)Cl): 386 nm

SMILES: COc1ccc(C#Cc2ccc(C#Cc3ccc(C#Cc4ccccc4C#N)cc3C#N)cc2C#N)cc1
- absorption maximum (in C1CCOC1): 369 nm
- absorption maximum (in CC#N): 364 nm
- absorption maximum (in CN(C)C=O): 369 nm
- absorption maximum (in ClC(Cl)Cl): 371 nm
- absorption maximum (in c1ccccc1): 371 nm

SMILES: c1ccc(Cn2c3sccc3c3c4nsnc4c4c5ccsc5n(Cc5ccccc5)c4c32)cc1
- absorption maximum (in Cc1ccccc1): 424 nm
- absorption maximum (in ClCCl): 424 nm

SMILES: COc1ccc2c(c1)sc1[n+]2[B-](F)(F)OC(c2ccc(N(C)C)cc2)=N1
- absorption maximum (in C1CCOC1): 430 nm
- absorption maximum (in CC#N): 426 nm
- absorption maximum (in CC(C)=O): 431 nm
- absorption maximum (in Cc1ccccc1): 427 nm
- absorption maximum (in ClCCl): 430 nm

SMILES: N#CC1=CC(/C=C/c2ccccc2)=CC(C#N)=P1(c1ccccc1)c1ccccc1
- absorption maximum (in ClC(Cl)Cl): 506 nm

SMILES: C[Si](C)(C)c1ccc2ccc3c([Si](C)(C)C)ccc4ccc1c2c43
- absorption maximum (in CCCCCC): 350 nm
- absorption maximum (in CO): 349 nm
- absorption maximum (in ClCCl): 352 nm

Now from value to molecule:

- absorption maximum (in CO): 258 nm
- absorption maximum (in CS(C)=O): 266 nm
SMILES: COc1ccc(NC(=O)C(C(=O)Nc2ccc(OC)cc2)C(c2ccccc2O)c2c(C)[nH]c3ccccc23)cc1 (stereo not given)

- absorption maximum (in ClCCl): 351 nm
SMILES: CCCCn1c2c(-c3ccc(N(c4ccccc4)c4ccccc4)cc3)cc(C#N)cc2c2cc(C#N)cc(-c3ccc(N(c4ccccc4)c4ccccc4)cc3)c21

- absorption maximum (in ClC(Cl)Cl): 524 nm
SMILES: CCCCN1C(=O)c2ccc3c4c(Br)cc5c6c(ccc(c7c(Br)cc(c2c37)C1=O)c64)C(=O)N(CCCC)C5=O

- absorption maximum (in CC1CCCO1): 313 nm
SMILES: c1ccc2c(c1)-c1ccccc1C21c2ccccc2-c2cccnc21

- absorption maximum (in C1CCOC1): 489 nm
SMILES: FC(F)(F)c1ccc(C2=CC3=c4cc(-c5ccc(C(F)(F)F)cc5)c5nc(C(F)(F)C(F)(F)C(F)(F)F)nc6c(-c7ccc(C(F)(F)F)cc7)cc(c4c65)C4=CC(c5ccc(C(F)(F)F)cc5)=C5N=C(C(F)(F)C(F)(F)C(F)(F)F)N=C2C5C43)cc1 (stereo not given)

- absorption maximum (in CN(C)C=O): 374 nm
SMILES: CCN(CC)c1ccc(-c2nc(Oc3ccc(-c4nc5ccccc5s4)cc3)nc(Oc3ccc(-c4nc5ccccc5s4)cc3)n2)cc1

- absorption maximum (in ClC(Cl)Cl): 432 nm
SMILES: C(#Cc1ccccc1)C(C#Cc1ccccc1)=Cc1c2ccccc2c(C=C(C#Cc2ccccc2)C#Cc2ccccc2)c2ccccc12

- absorption maximum (in ClCCl): 466 nm
SMILES: CCCCCc1ccc(-c2ccc(C#Cc3cc(C#Cc4ccc(-c5ccc(CCCCC)cc5)cc4)c4ccc5c(C(=O)c6ccccc6)cc(C#Cc6ccc(-c7ccc(CCCCC)cc7)cc6)c6ccc3c4c65)cc2)cc1

- absorption maximum (in CCCCCC): 638 nm
SMILES: CC(C)[Si](C#Cc1c2nc3ccccc3nc2c(C#C[Si](C(C)C)(C(C)C)C(C)C)c2nc3c(ccc4cc5ccccc5cc43)nc12)(C(C)C)C(C)C

- absorption maximum (in C1CCOC1): 443 nm
SMILES: CCCCCOc1cc2oc(=O)c3c4ccc(O)cc4c4ccc5cccc6c(c1)c2c3c4c56

- absorption maximum (in CC1CCCO1): 691 nm
SMILES: CC1=CC(/C=C/c2ccc3ccc4cccc5ccc2c3c45)=[N+]2C1=C(c1ccccc1)c1c(C)cc(/C=C/c3ccc4ccc5cccc6ccc3c4c56)n1[B-]2(F)F

- absorption maximum (in C1CCOC1): 446 nm
SMILES: CN(C)c1ccc(C2=C(c3ccccc3)c3sc4ccccc4[n+]3[B-](F)(F)O2)cc1

- absorption maximum (in CC#N): 771 nm
SMILES: CN1\C(=C/C=C/C=C/C2=C3C=CC(c4ccccc4)=[N+]3[B-](F)(F)n3c2ccc3-c2ccccc2)C(C)(C)c2ccccc21

- absorption maximum (in ClCCl): 472 nm
SMILES: F[B-]1(F)n2c(Oc3ccccc3)c(Cl)c3c2C(=C2C(Br)=C(Cl)C(Oc4ccccc4)=[N+]21)Oc1ccccc1-3

- absorption maximum (in CO): 637 nm
- absorption maximum (in CS(C)=O): 645 nm
- absorption maximum (in O): 633 nm
SMILES: CCCN1/C(=C/C=C/C=C/C2=[N+](CCC)c3ccccc3C2(C)C)C(C)(C)c2ccccc21

- absorption maximum (in ClC(Cl)Cl): 376 nm
SMILES: CC(C)(C)c1ccc(-c2ccc(-c3c4c(nc5ccccc35)-c3cc5c(cc3CC4)-c3nc4ccccc4c(-c4ccc(-c6ccc(C(C)(C)C)cc6)cc4)c3CC5)cc2)cc1

- absorption maximum (in C1CCOC1): 571 nm
SMILES: F[B-]1(F)n2c(-c3ccccc3)cc(-c3ccccc3)c2C=C2C(c3ccccc3)=CC(c3ccccc3)=[N+]21

- absorption maximum (in C1CCOC1): 391 nm
SMILES: CCCCCCC1(CCCCCC)c2cc(-c3nc(-c4ccc5c(c4)C(CCCCCC)(CCCCCC)c4cc(N6c7ccccc7Oc7ccccc76)ccc4-5)nc(-c4ccc5c(c4)C(CCCCCC)(CCCCCC)c4cc(N6c7ccccc7Oc7ccccc76)ccc4-5)n3)ccc2-c2ccc(N3c4ccccc4Oc4ccccc43)cc21

- absorption maximum (in ClC(Cl)Cl): 480 nm
SMILES: CC(C)c1cccc(C(C)C)c1-n1c(=O)c2cc3nc(-c4ccccc4)c4cc5c(=O)n(-c6c(C(C)C)cccc6C(C)C)c(=O)c6cc7c(-c8ccccc8)nc8cc(c1=O)c2c1c3c4c(c56)c7c81

- absorption maximum (in ClCCl): 360 nm
SMILES: CCn1c2c(-c3ccc(-c4cccs4)s3)cc(C(C)(C)C)cc2c2cc(C(C)(C)C)cc(-c3ccc(-c4cccs4)s3)c21

- absorption maximum (in ClC(Cl)Cl): 367 nm
SMILES: c1ccc(-c2nc(-c3ccccc3)c(N(c3ccccc3)c3ccccc3)s2)cc1
